Data from paper PMC10441322 (bioRxiv, 2023).

Columns and labels:
[1] = target: CYP2E1 (Homo sapiens, UniProt P05181); assay: Vivid CYP2E1 fluorogenic competitive inhibition assay, dose-response; format: biochemical
[2] = target: T1, Shaker voltage-gated potassium channel (Drosophila melanogaster, UniProt P08510); assay: cut-open voltage clamp of Shaker in Xenopus laevis oocytes, […] mV, pH […]; format: cell-based
[3] = target: T1, Shaker voltage-gated potassium channel; assay: cut-open voltage clamp of Shaker in Xenopus oocytes, […] mV, pH […]; format: cell-based

T1 sequence (P08510 whole entry): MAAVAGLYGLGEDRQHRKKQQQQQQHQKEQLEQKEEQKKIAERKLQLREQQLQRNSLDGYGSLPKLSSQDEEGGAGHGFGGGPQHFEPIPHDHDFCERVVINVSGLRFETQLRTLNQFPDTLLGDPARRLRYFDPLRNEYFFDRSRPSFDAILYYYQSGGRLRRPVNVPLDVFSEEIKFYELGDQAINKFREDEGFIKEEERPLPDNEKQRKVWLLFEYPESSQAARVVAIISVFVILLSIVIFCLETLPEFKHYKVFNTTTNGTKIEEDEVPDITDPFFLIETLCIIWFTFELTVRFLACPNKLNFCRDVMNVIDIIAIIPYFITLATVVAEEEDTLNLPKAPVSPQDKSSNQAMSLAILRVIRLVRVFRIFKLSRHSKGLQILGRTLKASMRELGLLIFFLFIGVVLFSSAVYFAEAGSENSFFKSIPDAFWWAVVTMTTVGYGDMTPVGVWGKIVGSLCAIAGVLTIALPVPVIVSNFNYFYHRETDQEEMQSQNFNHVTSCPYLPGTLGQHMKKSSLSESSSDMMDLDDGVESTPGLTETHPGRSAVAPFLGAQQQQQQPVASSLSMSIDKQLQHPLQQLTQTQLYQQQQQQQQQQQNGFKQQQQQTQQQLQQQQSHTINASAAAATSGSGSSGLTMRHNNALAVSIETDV
CYP2E1, sequence (P16435 2-677): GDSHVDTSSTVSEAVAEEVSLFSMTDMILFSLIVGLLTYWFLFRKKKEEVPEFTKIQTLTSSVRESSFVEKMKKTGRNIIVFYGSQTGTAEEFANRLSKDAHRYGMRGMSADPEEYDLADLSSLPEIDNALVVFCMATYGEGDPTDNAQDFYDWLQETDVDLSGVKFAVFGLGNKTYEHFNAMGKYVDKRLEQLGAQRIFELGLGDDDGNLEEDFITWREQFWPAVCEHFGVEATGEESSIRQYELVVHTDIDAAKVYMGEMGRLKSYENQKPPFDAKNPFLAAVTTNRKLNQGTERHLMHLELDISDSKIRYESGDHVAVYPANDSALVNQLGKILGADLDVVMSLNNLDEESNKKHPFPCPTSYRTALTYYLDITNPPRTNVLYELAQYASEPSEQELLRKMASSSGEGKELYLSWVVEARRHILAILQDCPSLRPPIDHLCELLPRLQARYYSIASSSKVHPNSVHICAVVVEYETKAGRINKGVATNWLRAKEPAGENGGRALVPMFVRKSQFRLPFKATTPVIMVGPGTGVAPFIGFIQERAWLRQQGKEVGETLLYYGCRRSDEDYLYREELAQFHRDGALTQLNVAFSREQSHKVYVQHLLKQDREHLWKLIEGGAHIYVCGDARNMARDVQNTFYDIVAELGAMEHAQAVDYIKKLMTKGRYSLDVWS
CYP2E1, sequence (P05181 whole entry): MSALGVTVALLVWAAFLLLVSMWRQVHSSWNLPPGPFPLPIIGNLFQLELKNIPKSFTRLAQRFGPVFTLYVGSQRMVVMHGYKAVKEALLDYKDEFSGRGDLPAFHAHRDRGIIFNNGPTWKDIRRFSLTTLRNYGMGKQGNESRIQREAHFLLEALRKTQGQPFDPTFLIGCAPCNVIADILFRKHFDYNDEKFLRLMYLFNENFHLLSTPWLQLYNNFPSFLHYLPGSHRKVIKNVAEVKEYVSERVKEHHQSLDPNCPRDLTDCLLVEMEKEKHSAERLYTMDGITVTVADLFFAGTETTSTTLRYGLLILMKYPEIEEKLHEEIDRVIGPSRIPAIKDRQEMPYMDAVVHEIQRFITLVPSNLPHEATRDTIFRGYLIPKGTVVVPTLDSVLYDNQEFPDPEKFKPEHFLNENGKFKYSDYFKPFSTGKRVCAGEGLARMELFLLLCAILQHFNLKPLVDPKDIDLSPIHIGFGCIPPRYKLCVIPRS

| IC50 [2] [µM] | Structure (SMILES) | IC50 [1] [µM] | IC50 [3] [µM] |
| --- | --- | --- | --- |
| 301 | Cc1cncc(F)c1N [5Me3F4AP, 3-fluoro-5-methylpyridin-4-amine] | 35.9 | – |
| – | Cc1cnccc1N [3Me4AP] | – | 66 |
| – | Nc1ccncc1F [3F4AP, 3-fluoro-4-aminopyridine] | 17 | 122 |
